ChEMBL document CHEMBL1201862, “PubChem BioAssay data set” (2004)
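Results reflect a 48-hour exposure of cells in 96-well plates to compound at five concentrations. GI50 marks 50% less growth.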 Activity calls are given as the source filed them. No stated cut-off is given here; in the data, active = GI50 up to about 1.1 µM and inactive = higher.

What was measured:
Test in all cases: inhibition of tumour cell growth, NCI panel, 48 h
Hs-578T = tested on: Hs-578T
SR = tested on: SR
UACC-257 = tested on: UACC-257
SK-MEL-2 = tested on: SK-MEL-2
KM12 = tested on: KM12
MDA-MB-435 = tested on: MDA-MB-435
SF-295 = tested on: SF-295
IGROV-1 = tested on: IGROV-1
K562 = tested on: K562
HT-29 = tested on: HT-29
PC-3 = tested on: PC-3
MOLT-4 = tested on: MOLT-4
SK-MEL-28 = tested on: SK-MEL-28
SW-620 = tested on: SW-620
OVCAR-8 = tested on: OVCAR-8
NCI-H226 = tested on: NCI-H226
OVCAR-5 = tested on: OVCAR-5
NCI-H460 = tested on: NCI-H460
SNB-19 = tested on: SNB-19
MDA-N = tested on: MDA-N

Measured: GI50

COc1cc(C2SCC(=O)N2c2ccc(NC(C)=O)cc2)cc(OC)c1OC (stereo not given)
inactive: Hs-578T > 100 µM | SR 31.2 µM | UACC-257 > 100 µM | SK-MEL-2 > 100 µM | KM12 > 100 µM | MDA-MB-435 52.7 µM | SF-295 > 100 µM | IGROV-1 > 100 µM | K562 > 100 µM | HT-29 90.4 µM | PC-3 > 100 µM | MOLT-4 50.9 µM | SK-MEL-28 > 100 µM | SW-620 > 100 µM | OVCAR-8 77.1 µM | NCI-H226 > 100 µM | OVCAR-5 > 100 µM | NCI-H460 > 100 µM | SNB-19 > 100 µM | MDA-N 33.8 µM

COC(=O)C1OC(O[C@H]2CC[C@]3(C)[C@H]4CC=C5[C@@H]6CC(C)(C)CC[C@]6(C(=O)OC)[C@H](O)C[C@@]5(C)[C@]4(C)CC[C@H]3C2(C)C)C(O)C(O)C1O (stereo not given in full)
inactive: Hs-578T 13.8 µM | SR 3.42 µM | UACC-257 15.3 µM | SK-MEL-2 15.1 µM | KM12 1.67 µM | MDA-MB-435 13.1 µM | SF-295 10.4 µM | IGROV-1 12.3 µM | K562 2.8 µM | HT-29 3.21 µM | PC-3 6.64 µM | MOLT-4 3.61 µM | SK-MEL-28 11.1 µM | SW-620 12.4 µM | OVCAR-8 13.2 µM | NCI-H226 15 µM | OVCAR-5 13.1 µM | NCI-H460 6.49 µM | SNB-19 13.9 µM | MDA-N 12.2 µM
